These results are taken from patent US8962665B2, “Thiazole and oxazole kinase inhibitors” (AB Science, priority 2010, dated 2015).

The target in the experiment is T1, Syk (Homo sapiens, UniProt P43405).
T1 construct: SYK kinase was purified as a full length protein in a baculovirus system near homogeneity; made in house; host or cells: baculovirus system
Description: Syk kinase HTRF (Kinease TK) assay. In kind it is biochemical. How it is done: SYK kinase was purified as a full length protein in a baculovirus system near homogeneity. JAKs kinases (JAK1, JAK2 and JAK3) were purchased either from Invitrogen or from Millipore. All kinases assays were performed with the Kinease TK (tyrosine kinase) HTRF (Homogeneous Time Resolved Fluorescence) assay developed by Cisbio international. […] Reactions were initiated upon introduction of the enzyme and terminated with the addition of one reaction volume (25 μl) of HTRF detection buffer. Plates were incubated for one hour at room temperature and the time resolved Fluorescence resonance energy transfer signal was measured in a Pherastar FS microplate reader (BMG Labtech). All data are the average of triplicate results with a standard deviation<10%.
(In general: Time-resolved FRET reads energy transfer from a long-lived donor to a nearby acceptor.)

The structures appear in SMILES notation.

For orientation: IC50 means the concentration at which inhibition is half-maximal. The low end stands for inhibition by little substance, the high end for a need for much substance. Turning to `Cc1ccnc(Nc2cccc(-c3cnc(-c4cccnc4)s3)n2)c1` [Example 020, (4-Methyl-pyridin-2-yl)-[6-(2-pyridin-3-yl-thiazol-5-yl)-pyridin-2-yl]-amine], the half-inhibitory concentration (IC50) is below 1000 nM.
To `Cc1ccnc(Nc2cccc(-c3cnc(-c4ccc[nH]c4=O)o3)n2)c1` [Example 045, 3-{5-[6-(4-methyl-pyridin-2-ylamino)-pyridin-2-yl]-oxazol-2-yl}-1H-pyridin-2-one] belongs below 1000 nM; to `Cc1ccnc(Nc2cccc(-c3cnc(-c4nc5ccccc5o4)o3)n2)c1` [Example 048, [6-(2-benzoxazole-2-yl-oxazol-5-yl)-pyridin-2-yl]-(4-methyl-pyridin-2-yl)-amine], below 1000 nM.
To `Cc1ccnc(Nc2cccc(-c3cnc(-c4ccccc4)s3)n2)c1` [Example 056, (4-Methyl-pyridin-2-yl)-[6-(2-phenyl-thiazol-5-yl)-pyridin-2-yl]-amine] belongs below 1000 nM; to `Cc1ccnc(Nc2cccc(-c3cnc(-c4c(C)cccc4C)o3)n2)c1` [Example 062, {6-[2-(2,6-Dimethyl-phenyl)-oxazol-5-yl]-pyridin-2-yl}-(4-methyl-pyridin-2-yl)-amine], 1000 to 10000 nM; to `Cc1ccnc(Nc2cccc(-c3cnc(-c4cccc(C#N)c4)s3)n2)c1` [Example 064, 3-{5-[6-(4-Methyl-pyridin-2-ylamino)-pyridin-2-yl]-thiazol-2-yl}-benzonitrile], 1000 to 10000 nM.
`Cc1ccnc(Nc2cccc(-c3cnc(-c4ccc5[nH]ccc5c4)o3)n2)c1` [Example 069, {6-[2-(1H-Indol-5-yl)-oxazol-5-yl]-pyridin-2-yl}-(4-methyl-pyridin-2-yl)-amine] gave an IC50 below 1000 nM.
To `Cc1ccnc(Nc2cccc(-c3cnc(-c4ccccn4)s3)n2)c1` [Example 080, (4-Methyl-pyridin-2-yl)-[6-(2-pyridin-2-yl-thiazol-5-yl)-pyridin-2-yl]-amine] belongs below 1000 nM; to `Cc1ccnc(Nc2cccc(-c3cnc(N4CCOCC4)o3)n2)c1` [Example 099, (4-Methyl-pyridin-2-yl)-[6-(2-morpholin-4-yl-oxazol-5-yl)-pyridin-2-yl]-amine], below 1000 nM.
Under `Cc1ccc(Nc2cccc(-c3cnc(-c4ccc5[nH]ccc5c4)o3)n2)nc1` [Example 116, {6-[2-(1H-Indol-5-yl)-oxazol-5-yl]-pyridin-2-yl}-(5-methyl-pyridin-2-yl)-amine] stands 1000 to 10000 nM; under `Cc1ccc(Nc2cccc(-c3cnc(N4CCNC(=O)C4)o3)n2)nc1` [Example 118, 4-{5-[6-(5-Methyl-pyridin-2-ylamino)-pyridin-2-yl]-oxazol-2-yl}-piperazine-2-one], below 1000 nM; under `Clc1ccnc(Nc2cccc(-c3cnc(-c4ccsc4)o3)n2)c1` [Example 120, (4-Chloro-pyridin-2-yl)-[6-(2-thiophen-3-yl-oxazol-5-yl)-pyridin-2-yl]-amine], 1000 to 10000 nM.
Take `O=C1CN(c2ncc(-c3cccc(Nc4cnccn4)n3)o2)CCN1` [Example 140, 4-{5-[6-(Pyrazin-2-ylamino)-pyridin-2-yl]-oxazol-2-yl}-piperazine-2-one]: the IC50 was below 1000 nM.
